Results as given in US20160115540A1, “PRODRUGS AND DRUGS” (Biogen MA Inc., priority 2013, published 2016).
Structures can show the parent of a compound that is named as a salt.

System: spleen
Assay: Transcriptional profiling, multi-dosing regimen, naïve mice: spleen
Format: in vivo
Conditions: for Number of differentially expressed genes identified: Spleen: Table 13: Naïve, Single Dose (so in the source), 12 h after last dosing
Experimental: In vivo, DMF is rapidly metabolized to monomethyl fumarate (MMF). […] Animals were exposed to CO2 and whole blood collected via cardiac puncture. Two 100 μl aliquots of whole blood were collected in 1.5 mL microcentrifuge tubes and snap frozen in liquid nitrogen. Peripheral (liver, spleen, kidney and jejunum) and CNS brain (cerebellum, hippocampus, striatum and cortex) tissues were harvested and snap frozen in liquid nitrogen, with special care taken to collect tissues of similar size and from the same location. All samples were stored at -80° C. until RNA extraction was conducted. For RNA preparation, frozen tissues were placed in 2 mL RNAse-free 96-well blocks with 1.5 mL QIAzol Lysis Reagent (QIAgen) and a 3.2 mm stainless steel bead (BioSpec Products, Bartlesville, Okla.). Tissues were disrupted for four cycles of 45 seconds in a Mini-Beadbeater (Biospec Products). RNA was extracted in chloroform and the aqueous phase was mixed with an equal volume of 70% ethanol. Extracted RNA was applied to RNeasy 96 plates and purified by the spin method according to the manufacturer's protocol (RNeasy 96 Universal Tissue Protocol, QIAgen, Hilden Germany). […] Two micrograms of biotin labeled […] probe were hybridized to Affymetrix GeneChip Affymetrix HT_MG-430_PM plate arrays with modified conditions as described in […] et al. Washing and staining of the hybridized arrays were completed as described in the GeneChip Expression analysis technical manual for HT plate arrays using the Genechip® Array Station (Affymetrix, Santa Clara, Calif.) with modifications as described in […] et al. The processed GeneChip® plate arrays were scanned using GeneTitan scanner (Affymetrix, Santa Clara, Calif.). Affymetrix scans were subject to quality control (QC) measures. These tests included a visual inspection of the distribution of raw signal intensities and an assessment of RNA degradation, relative log expression (RLE), and normalized unsealed standard error (NUSE). All sample scans that passed these QC metrics were included in the analysis. All CEL files were subjected to GC-content-based Robust Multi-array Average (GCRMA) normalization (version 2.20.0) (Irizarry R A, et al. Nucleic Acids Res 2003; 31:e15; Li C, et al. […] Stat Appl Genet Mol Biol 2004; 3:Article3). […] Springer Science+Business Media 2005). Changes in gene expression were studied by applying a linear modeling approach to fit gene expression levels according to the defined groups of samples (e.g. DMF-, MMF-, and Vehicle-treated animals) and Bayesian posterior error analysis as implemented by Smyth (Smyth G K. Stat Appl Genet Mol Biol 2004; 3:Article3). The comparisons considered included: DMF-vs-MMF, DMF-vs-Vehicle, and MMF-vs-Vehicle. […] Very few DEGs are observed in blood and tissues derived from the central nervous system (brain, cerebellum, cortex, striatum, and spinal cord).

[1] = SPLEEN, 100DMF-vs-100MMF, naïve multidose
[2] = SPLEEN, 100DMF-vs-Veh, naïve multidose
[3] = SPLEEN, 100MMF-vs-Veh, naïve multidose

## COC(=O)/C=C/C(=O)OC [DMF, dimethyl fumarate]
[1]
  FC 4931431B13Rik (1430416_PM_at): 2.18
  FC AU015536 (1445025_PM_at): 1.55
  FC Adap2 (1425639_PM_at): 1.60
  FC Agtr1a (1436739_PM_at): 1.61
  FC Ano1 (1426571_PM_at): 1.70
  FC Ano1 (1459713_PM_s_at): 1.55
  FC Apoc1 (1417561_PM_at): 1.74
  FC Ccbe1 (1439327_PM_at): 2.07
  FC Ccdc80 (1424187_PM_at): 1.74
  FC Ccl3 (1419561_PM_at): 1.81
  FC Ccl6 (1420249_PM_s_at): 1.88
  FC Ccr3 (1422957_PM_at): 2.25
  FC Cd300ld (1424832_PM_at): 1.82
  FC Cdr2l (1445027_PM_at): 1.57
  FC Clec4n (1419627_PM_s_at): 1.52
  FC Clec4n (1425951_PM_a_at): 1.83
  FC Dmd (1417307_PM_at): 1.59
  FC Ear1 (1421802_PM_at): 3.89
  FC Ear1 /// Ear12 /// Ear2 /// Ear3 (1422411_PM_s_at): 1.79
  FC Ear2 (1449846_PM_at): 1.51
  FC Ear3 (1422412_PM_x_at): 1.80
  FC Emr4 (1424998_PM_at): 1.77
  FC Ercc61 (1424766_PM_at): −1.66
  FC Fam63a (1438321_PM_x_at): −1.52
  FC Fcgr1 (1417876_PM_at): 1.61
  FC Fcna (1418243_PM_at): 1.57
  FC Hs6st2 (1450047_PM_at): 1.64
  FC Kcnj16 (1435094_PM_at): 1.69
  FC Klrb1a (1450296_PM_at): 1.78
  FC Lphn3 (1458742_PM_at): 1.60
  FC Ncr1 (1422089_PM_at): 1.54
  FC Niacr1 (1419721_PM_at): 1.65
  FC P2ry12 (1431724_PM_a_at): 1.66
  FC Pla2g7 (1430700_PM_a_at): 1.51
  FC Ptplad2 (1450967_PM_at): 1.56
  FC Rab31 (1431691_PM_a_at): 1.73
  FC Rnf144b (1425282_PM_at): 1.86
  FC Skiv2l (1422584_PM_at): −1.52
  FC St18 (1455123_PM_at): 1.75
  FC Sult1a1 (1427345_PM_a_at): 1.51
  FC Tmem26 (1434583_PM_at): 1.57
  FC Ubn2 (1430056_PM_at): −1.62
  FC Vcam1 (1415989_PM_at): 1.50
  FC Vcam1 (1436003_PM_at): 1.62
  FC Vcam1 (1451314_PM_a_at): 1.61
  FC Vnn3 (1420723_PM_at): 1.54
  FC probe 1420250_PM_at (no gene symbol): 1.50
  FC probe 1421534_PM_at (no gene symbol): 1.57
  FC probe 1429277_PM_at (no gene symbol): 1.59
  FC probe 1442323_PM_at (no gene symbol): −1.55
  FC probe 1444189_PM_at (no gene symbol): 1.71
  FC probe 1445379_PM_at (no gene symbol): −1.51
[2]
  FC Aox1 (1419435_PM_at): 1.66
  FC Gsta3 (1423436_PM_at): 1.86
  FC Gstm1 (1416416_PM_x_at): 1.57
  FC Gstm1 (1448330_PM_at): 1.61
100 mpk DMF-vs-90 mpk MMF
  Number of differentially expressed genes identified: Spleen: 52
100 mpk DMF-vs-Vehicle
  Number of differentially expressed genes identified: Spleen: 4
spleen, multi-dosed naïve mice
  CCR3, Klrb1c, NCR1 and CCL3L1 expression (downstream of IL2), DMF vs MMF: up-regulated
  FCGR1A, ST18, CCL3L1 and VCAM1 expression (downstream of NFkB), DMF vs MMF: up-regulated

## COC(=O)/C=C/C(=O)O [MMF, monomethyl fumarate]
[3]
  FC 4931431B13Rik (1430416_PM_at): −1.94
  FC 5430404G13Rik (1453540_PM_at): −1.55
  FC 5730403M16Rik (1434343_PM_at): 1.51
  FC Ccdc80 (1424187_PM_at): −1.64
  FC Ccl3 (1419561_PM_at): −1.82
  FC Ccr3 (1422957_PM_at): −2.37
  FC Cd300ld (1424832_PM_at): −1.85
  FC Clec4a2 (1422013_PM_at): −1.50
  FC Clec4a2 (1425406_PM_at): −1.64
  FC Clec4a3 (1429954_PM_at): −1.58
  FC Clec4n (1425951_PM_a_at): −1.81
  FC Csmd3 (1438272_PM_at): −1.80
  FC Defb1 (1419491_PM_at): 1.55
  FC Dmd (1417307_PM_at): −1.56
  FC Ear3 (1422412_PM_x_at): −1.73
  FC Emr4 (1424998_PM_at): −1.75
  FC Fam63a (1438321_PM_x_at): 1.54
  FC Fcgr1 (1417876_PM_at): −1.84
  FC Fgfrl1 /// LOC100046239 (1447878_PM_s_at): 1.53
  FC Gzma (1417898_PM_a_at): −1.64
  FC Hpgds (1421492_PM_at): −1.55
  FC Hs6st2 (1450047_PM_at): −1.75
  FC Iigp1 (1419043_PM_a_at): −1.72
  FC Lrp4 (1426288_PM_at): −1.51
  FC Lrrc50 (1421974_PM_at): 1.53
  FC Niacr1 (1419721_PM_at): −1.91
  FC Ptplad2 (1450967_PM_at): −1.55
  FC Rab31 (1431691_PM_a_at): −1.62
  FC Rnf144b (1425282_PM_at): −1.71
  FC Stfa2l1 (1442339_PM_at): −2.07
  FC Stx1a (1437390_PM_x_at): 1.53
  FC Tmem26 (1434583_PM_at): −1.67
  FC Ubn2 (1430056_PM_at): 1.64
  FC Ucp2 (1444566_PM_at): 1.54
  FC Vnn3 (1420723_PM_at): −1.59
  FC probe 1429277_PM_at (no gene symbol): −1.60
  FC probe 1431225_PM_at (no gene symbol): 1.58
  FC probe 1439831_PM_at (no gene symbol): −1.51
  FC probe 1442323_PM_at (no gene symbol): 1.51
  FC probe 1447204_PM_at (no gene symbol): −1.95
  FC probe 1449653_PM_at (no gene symbol): −1.57
  FC probe 1457306_PM_at (no gene symbol): 2.12
90 mpk MMF-vs-Vehicle
  Number of differentially expressed genes identified: Spleen: 42
